In US10363257B2 (ZENITH EPIGENETICS LTD., priority 2013, dated 2019):

Assays:
[1] = target: T1, Brd4 bromodomain 1 (BRD4(1)) (Homo sapiens, UniProt O60885); assay: Inhibition of tetra-acetylated histone H4 binding to Brd4 bromodomain 1 (TR-FRET); details: tetra-acetylated histone H4 peptide, first bromodomain of Brd4
T1 construct: made in house; host or cells: E. coli BL21(DE3)
Method in brief: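 Serially diluted compound (0.2% DMSO) incubated 2 h at room temperature with 200 nM N-His BRD4 bromodomain 1 and 25-50 nM biotinylated tetra-acetyl H4 peptide, detected via Eu-streptavidin/XL665 anti-His. Loss of 665 nm relative to 620 nm signal gave IC50 from dose-response.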

c-myc = assay: Inhibition of c-myc expression (mRNA, real-time PCR) in MV4-11 cells; assay type: cell-based; details: Human AML MV4-11 cells, 3 h, cMYC mRNA
Method in brief: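 One-step TaqMan qPCR of cMYC, normalized to an internal control with Cyclophilin probes run, gave fold expression versus DMSO (0.1%) control. Samples: triplicate MV4-11 wells exposed 3 h at 37° C to rising compound concentrations in IMDM with 10% FBS.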

human AML MV-4-11 cells = assay: Inhibition of cell proliferation in MV4-11 cells (CellTiter Aqueous One); assay type: cell-based; details: MV4-11, 72 h
Method in brief: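 IC50 values come from blank-corrected proliferation relative to DMSO controls, read as 490 nm absorbance 3–4 h after CellTiter Aqueous One addition. Before that, cells seeded at 5×10^4/well were exposed for 72 h (37° C, 5% CO2) to triplicate two-fold compound dilutions spanning 30–0.2 μM.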

hIL-6 mRNA = assay: Inhibition of hIL-6 mRNA transcription in LPS-stimulated U937 cells; assay type: cell-based; details: Homo sapiens, U-937; PMA-differentiated U937 cells, 1 h pretreatment, 1 ug/mL LPS stimulation, 3 h; read-out: IL-6 activity (Inhibition of hIL-6 mRNA Transcription)
Method in brief: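 U937 cells differentiated 3 days with 60 ng/mL PMA, pretreated 1 h with compound (0.1% DMSO), then stimulated with 1 ug/mL E. coli LPS for 3 h at 37 °C. hIL-6 mRNA measured by one-step TaqMan RT-qPCR, normalized to cyclophilin. Fold expression relative to control; triplicate wells.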

hIL-17 mRNA = assay: Inhibition of hIL-17 mRNA transcription in OKT3-stimulated peripheral blood mononuclear cells; assay type: cell-based; details: PBMC, human peripheral blood mononuclear cells, OKT3 antibody, 6 h, read-out: IL-17 activity
Protocol: In this example, hIL-17 mRNA in human peripheral blood mononuclear cells was quantitated to measure the transcriptional inhibition of hIL-17 when treated with a compound of the invention.
Human peripheral blood mononuclear cells were plated (2.0×10^5 cells per well) in a 96-well plate in 45 μL OpTimizer T Cell expansion media containing 20 ng/ml IL-2 and penicillin/streptomycin. The cells were treated with the test compound (45 μL at 2× concentration), and then the cells were incubated at 37° C. for 1 h before addition of 10× stock OKT3 antibody at 10 μg/ml in media. Cells were incubated at 37° C. for 6 h before the cells were harvested. At time of harvest, cells were centrifuged (800 rpm, 5 min). Spent media was removed and cell lysis solution (70 μL) was added to the cells in each well and incubated for 5-10 min at room temperature, to allow for complete cell lysis and detachment. mRNA was then prepared using the “mRNA Catcher PLUS plate” (Invitrogen), according to the protocol supplied. After the last wash, as much wash buffer as possible was aspirated without allowing the wells to dry. Elution buffer (E3, 70 μL) was then added to each well. mRNA was then eluted by incubating the mRNA Catcher PLUS plate with Elution Buffer for 5 min at 68° C. and then immediately placing the plate on ice.
The eluted mRNA isolated was then used in a one-step quantitative RT-PCR reaction, using components of the Ultra Sense Kit together with Applied Biosystems primer-probe mixes. Real-time PCR data was analyzed, normalizing the Ct values for hIL-17 to an internal control, prior to determining the fold induction of each unknown sample, relative to the control.

SMILES | IC50 [1] [nM] | IC50 (c-myc) [nM] | IC50 (human AML MV-4-11 cells) [nM] | IC50 (hIL-6 mRNA) [nM] | IC50 (hIL-17 mRNA) [nM]
Cc1noc(C)c1-c1cc(N)c2c(c1)ncn2Cc1ccccc1 [Example Compound 8, 1-Benzyl-5-(3,5-dimethylisoxazol-4-yl)-1H-benzo[d]imidazol-7-amine] | ≤ 300 | 300 to 3000 | 300 to 3000 | 300 to 3000 | 300 to 3000
CCNc1nc2c(N)cc(-c3c(C)noc3C)cc2n1Cc1ccccc1 [Example Compound 19, 1-benzyl-6-(3,5-dimethylisoxazol-4-yl)-N^2-ethyl-1H-benzo[d]imidazole-2,4-diamine] | ≤ 300 | ≤ 300 | ≤ 300 | ≤ 300 | ≤ 300
Cc1noc(C)c1-c1cc(N)c2[nH]c(=O)n(Cc3ccccc3)c2c1 [Example Compound 16, 4-amino-1-benzyl-6-(3,5-dimethylisoxazol-4-yl)-1H-benzo[d]imidazol-2(3H)-one] | ≤ 300 | ≤ 300 | ≤ 300 | ≤ 300 | 300 to 3000

Continued, values first:

IC50 [1] [nM] | IC50 (c-myc) [nM] | IC50 (human AML MV-4-11 cells) [nM] | IC50 (hIL-6 mRNA) [nM] | IC50 (hIL-17 mRNA) [nM] | SMILES
≤ 300 | 300 to 3000 | 300 to 3000 | 300 to 3000 | 300 to 3000 | Cc1noc(C)c1-c1cnc2ncn(Cc3ccc(F)cc3)c2c1 [Example Compound 45, 4-(1-(4-fluorobenzyl)-1H-imidazo[4,5-b]pyridin-6-yl)-3,5-dimethylisoxazole]
≤ 300 | ≤ 300 | ≤ 300 | ≤ 300 | ≤ 300 | Cc1noc(C)c1-c1cc(N)c2nc(C)n(Cc3ccccc3)c2c1 [Example Compound 55, 1-benzyl-6-(3,5-dimethylisoxazol-4-yl)-2-methyl-1H-benzo[d]imidazol-4-amine]
≤ 300 | 300 to 3000 | 300 to 3000 | 300 to 3000 | 300 to 3000 | Cc1noc(C)c1-c1cnc2[nH]c(=O)n(Cc3cccs3)c2c1 [compound 106, 6-(3,5-dimethylisoxazol-4-yl)-1-(thiophen-2-ylmethyl)-1H-imidazo[4,5-b]pyridin-2(3H)-one]
≤ 300 | 300 to 3000 | 300 to 3000 | 300 to 3000 | 300 to 3000 | Cc1noc(C)c1-c1cnc2ncn(C(C)c3ccccc3)c2c1 (stereo not shown) [Example Compound 30]
≤ 300 | ≤ 300 | 300 to 3000 | 300 to 3000 | ≤ 300 | Cc1noc(C)c1-c1cnc2[nH]c(=O)n(C(C)c3ccccc3)c2c1 (stereo not shown) [compound 112, 6-(3,5-dimethylisoxazol-4-yl)-1-(1-phenylethyl)-1H-imidazo[4,5-b]pyridin-2(3H)-one]
